# What was measured:
# [1] = test system: dandruff average condition profile; assay: Signature-free query for agents with gene expression profiles most different from a query condition (dandruff) (FIG. 17); settings: greater distance = more likely to reverse the condition
# Text: Turning next to the method 110, FIG. 10 depicts a method 150 for performing a query for perturbagens eliciting a biological response that is dissimilar to that induced by a condition (e.g., chemicals likely to reverse a particular condition in a cell) (block 112). The method includes determining an average condition profile to use as a query (block 152), as described above. Specifically, the average condition profile (also referred to as an “adjusted condition gene expression profile”) may be calculated by finding the average expression value for each of the subset of probes used to learn the expression matrix. That is, if all of probes ID1-IDN (referring to FIG. 13) were used to learn the expression matrix, the average expression profile for a condition tested in instances 3A-10A and 3B-10B would include an average expression value for probe ID1: The average condition profile is projected onto the projection space (block 154). The distance from the average condition profile to each of the perturbagens in the projection space matrix is determined (block 156) and, at least in some embodiments, the perturbagens are ranked according to the distance of each in the projection space from the average condition profile (block 158). In some embodiments, the distance is calculated as a cosine distance. In some embodiments, the distance is calculated as a Euclidean distance. […]
# MCF7 cell line = assay: Signature-free query for agents with biological activity similar to estradiol in cell line MCF7 (FIG. 15); format: cell-based; settings: cell line MCF7 (expresses estrogen receptors); top five and bottom five chemicals
# Text: Using the projection space matrix, it is possible to determine the similarity (or difference) between gene expression profiles in the projection space. The methods 100 and 110, for example, perform queries for similar biological activity (block 108) and biological dissimilarity (i.e., agents most likely to reverse a clinical endpoint) (block 112), respectively, by looking at the distances between instances depicted in the projection space matrix. Turning first to the method 100, FIG. 9 depicts a method 140 for performing a query for similar biological activity between instances mapping to two points in the projection space (e.g., for performing a query for similar activity between perturbagens) (block 108). […]
# A query perturbagen (also referred to as a query agent) is then selected from the perturbagens in the projection space matrix (block 144). […] The distance from the query perturbagen in the projection space is calculated for each instance (or for a selected subset of instances) in the projection space matrix (block 146). In some embodiments, the distance is calculated as a cosine distance. In some embodiments, the distance is calculated as a Euclidean distance. […]
# With reference to FIGS. 15 and 16, the effect of different perturbagens on different cell types at the transcriptional level is readily apparent. […]
SMILES,ranking according to distance from the query condition [1],ranking according to distance from query perturbagen estradiol (MCF7 cell line)
CC(C)(C)C(=O)C(Oc1ccc(Cl)cc1)n1ccnc1 (stereo not shown) [Climbazole],more distant from the query condition,
CCN(CC)CCOc1ccc(C(=C(Cl)c2ccccc2)c2ccccc2)cc1 [Clomifene],,most dissimilar
C[C@]12CC[C@@H]3c4ccc(O)cc4C[C@@H](CCCCCCCCC[S+]([O-])CCCC(F)(F)C(F)(F)F)[C@H]3[C@@H]1CC[C@@H]2O (stereo partly shown) [Fulvestrant],,most dissimilar
CC(=O)N1CCN(c2ccc(OCC3COC(Cn4ccnc4)(c4ccc(Cl)cc4Cl)O3)cc2)CC1 (stereo not shown) [Ketocanozole],more distant from the query condition,
